Results reported in patent US12624034B2, “Non-covalent modifiers of AKT1 and uses thereof” (Terremoto Biosciences, Inc., priority 2023, dated 2026).

Experiments:
[1] = molecular target: T1, AKT1 WT (Homo sapiens, UniProt P31749); experiment: Live cell AKT1 WT target engagement by NanoBRET competitive probe displacement in HEK293 cells; type: binding; conditions: NanoBRET competitive probe displacement, live HEK293 cells, 2 h at 37° C.; read-out: AKT1 WT IC50
T1 construct: expressed in transfected cells; host or cells: HEK293
T1 sequence (P31749 whole entry): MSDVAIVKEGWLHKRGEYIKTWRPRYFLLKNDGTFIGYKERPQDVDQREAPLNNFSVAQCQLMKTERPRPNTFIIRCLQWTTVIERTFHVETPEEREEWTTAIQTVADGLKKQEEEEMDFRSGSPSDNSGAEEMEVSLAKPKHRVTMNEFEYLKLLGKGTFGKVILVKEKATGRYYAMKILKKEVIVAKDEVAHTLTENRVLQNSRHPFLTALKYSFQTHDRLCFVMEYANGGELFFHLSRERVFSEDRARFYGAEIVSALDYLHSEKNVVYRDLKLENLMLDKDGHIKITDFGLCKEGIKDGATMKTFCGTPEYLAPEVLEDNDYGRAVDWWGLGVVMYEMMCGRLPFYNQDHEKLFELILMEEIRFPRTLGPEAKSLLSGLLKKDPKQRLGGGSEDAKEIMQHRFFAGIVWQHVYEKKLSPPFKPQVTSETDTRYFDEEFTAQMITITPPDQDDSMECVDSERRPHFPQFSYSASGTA

[2] = molecular target: T2, AKT2 (Homo sapiens, UniProt P31751); experiment: Live cell AKT2 target engagement by NanoBRET competitive probe displacement in HEK293 cells; type: binding; conditions: NanoBRET competitive probe displacement, live HEK293 cells, 2 h at 37° C.; read-out: AKT2 IC50
T2 construct: expressed in transfected cells; host or cells: HEK293
T2 sequence (P31751 whole entry): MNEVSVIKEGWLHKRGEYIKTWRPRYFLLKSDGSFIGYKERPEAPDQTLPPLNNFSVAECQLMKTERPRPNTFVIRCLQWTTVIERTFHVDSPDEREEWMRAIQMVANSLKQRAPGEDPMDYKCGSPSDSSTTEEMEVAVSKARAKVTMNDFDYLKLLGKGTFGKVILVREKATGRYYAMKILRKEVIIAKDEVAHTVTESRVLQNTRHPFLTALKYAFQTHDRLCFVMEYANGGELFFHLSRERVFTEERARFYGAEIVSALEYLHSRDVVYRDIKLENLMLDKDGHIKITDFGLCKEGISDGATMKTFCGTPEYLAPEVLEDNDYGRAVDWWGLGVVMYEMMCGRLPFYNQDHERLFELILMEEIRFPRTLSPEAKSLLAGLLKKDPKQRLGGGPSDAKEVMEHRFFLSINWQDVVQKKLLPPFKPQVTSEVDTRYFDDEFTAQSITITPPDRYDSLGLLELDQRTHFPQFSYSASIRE

Row | SMILES | IC50 [1] [nM] | IC50 [2] [nM]
1 | Nc1ncccc1-c1nc2ccc(-n3cccn3)nc2n1-c1ccc2c(c1)CC[C@@H]2NC1CCN(C(=O)[C@H]2C[C@@H]2F)CC1 [Compound 479] | 89.3 | > 10000
2 | Nc1ncccc1-c1nc2ccc(-n3ccc(C4CC4)n3)nc2n1-c1ccc2c(c1)CC(F)[C@@H]2NC1CCN(C(=O)C2CC2)CC1 (stereo partly shown) [Compound 480] | 38.9 | 3140
3 | Nc1ncccc1-c1nc2ccc(-n3cccn3)nc2n1-c1ccc2c(c1)CC(F)[C@@H]2NC1CCc2cnccc21 (stereo partly shown) [Compound 481] | 13.9 | 278
4 | Nc1ncccc1-c1nc2ccc(-n3ccc(OC(F)F)n3)nc2n1-c1ccc2c(c1)CC[C@@H]2NC1CCN(C(=O)C2CC2)CC1 [Compound 483] | 30.9 | 7440
5 | COc1ccn(-c2ccc3nc(-c4cccnc4N)n(-c4ccc5c(c4)CC[C@@H]5NC4CN(C(=O)C5CC5)C4)c3n2)n1 [Compound 484] | 28.4 | 3850
6 | COc1cnn(-c2ccc3nc(-c4cccnc4N)n(-c4ccc5c(c4)CC[C@@H]5NC4CCN(C(=O)C5CC5)CC4)c3n2)c1 [Compound 485] | 50.9 | 997
7 | CCOc1ccn(-c2ccc3nc(-c4cccnc4N)n(-c4ccc5c(c4)CC[C@@H]5NC4CCN(C(=O)C5CC5)CC4)c3n2)n1 [Compound 486] | 25.1 | 1070
8 | Nc1ncccc1-c1nc2ccc(-n3ccc(C4CCOCC4)n3)nc2n1-c1ccc2c(c1)CC[C@@H]2NC1CCN(C(=O)C2CC2)CC1 [Compound 487] | 42.8 | > 10000
9 | Cc1oncc1C(=O)N1CCC(N[C@H]2CCc3cc(-n4c(-c5cccnc5N)nc5ccc(-n6cccn6)nc54)ccc32)CC1 [Compound 489] | 92.6 | 5410
10 | Nc1ncccc1-c1nc2ccc(-n3nccn3)nc2n1-c1ccc2c(c1)CC[C@@H]2NC(=O)c1ccc(CO)nc1 [Compound 490] | 74.3 | 3200
11 | Cc1ncc(C(=O)N[C@H]2CCc3cc(-n4c(-c5cccnc5N)nc5ccc(-n6nccn6)nc54)ccc32)s1 [Compound 492] | 24.1 | 2120
12 | COc1ccn(-c2ccc3nc(-c4cccnc4N)n(-c4ccc5c(c4)CC(F)[C@@H]5NC4CN(C(=O)C5CC5)C4)c3n2)n1 (stereo partly shown) [Compound 493] | 57.6 | 973
13 | Nc1ncccc1-c1nc2ccc(-n3cccn3)nc2n1-c1ccc2c(c1)CC[C@@H]2N1Cc2ccncc2C1 [Compound 494] | 199 | 6860
14 | Nc1ncccc1-c1nc2ccc(-n3ccc(OC4CC4)n3)nc2n1-c1ccc2c(c1)CC[C@@H]2NC1CCN(C(=O)C2CC2)CC1 [Compound 497] | 18.9 | 1280
15 | Nc1ncccc1-c1nc2ccc(-n3cccn3)nc2n1-c1ccc2c(c1)CC[C@@H]2NC1CCc2cc(O)ccc21 (stereo partly shown) [Compound 498] | 43 | 620
16 | Nc1ncccc1-c1nc2ccc(-n3cccn3)nc2n1-c1ccc2c(c1)CC[C@H]2NC1CCN(C(=O)C2CC2)CC1 [Compound 500] | 81.5 | > 10000
17 | Nc1ncccc1-c1nc2ccc(-n3cccn3)nc2n1-c1ccc2c(c1)CC[C@@H]2NC1CCCc2ccncc21 (stereo partly shown) [Compound 501] | 20.5 | 695
18 | Nc1ncccc1-c1nc2ccc(-n3cccn3)nc2n1-c1ccc2c(c1)CC[C@@H]2NC1CCCc2ccncc21 (stereo partly shown) [Compound 502] | 134 | 2090
19 | Nc1ncccc1-c1nc2ccc(C#CC3CC3)nc2n1-c1ccc2c(c1)CC[C@@H]2NC1CN(C(=O)C2CC2)C1 [Compound 506] | 96.9 | 8940
20 | COc1nccc2c1CCC2N[C@H]1CCc2cc(-n3c(-c4cccnc4N)nc4ccc(-n5cccn5)nc43)ccc21 (stereo partly shown) [Compound 508] | 75.9 | 627
21 | COc1nccc2c1CCC2N[C@H]1CCc2cc(-n3c(-c4cccnc4N)nc4ccc(-n5cccn5)nc43)ccc21 (stereo partly shown) [Compound 509] | 28.7 | 928
22 | COc1cc2c(cn1)CCC2N[C@H]1CCc2cc(-n3c(-c4cccnc4N)nc4ccc(-n5cccn5)nc43)ccc21 (stereo partly shown) [Compound 510] | 14.6 | 262
23 | COc1cc2c(cn1)CCC2N[C@H]1CCc2cc(-n3c(-c4cccnc4N)nc4ccc(-n5cccn5)nc43)ccc21 (stereo partly shown) [Compound 511] | 10.4 | 196
24 | COc1ccn(-c2ccc3nc(-c4cccnc4N)n(-c4ccc5c(c4)CC[C@@H]5NC4CCN(C(=O)C5CC5)CC4F)c3n2)n1 (stereo partly shown) [Compound 512] | 19.7 | 409
25 | COc1ccn(-c2ccc3nc(-c4cccnc4N)n(-c4ccc5c(c4)CC[C@@H]5NC4CCN(C(=O)C5CC5)CC4F)c3n2)n1 (stereo partly shown) [Compound 513] | 13.9 | 240
26 | COc1ccn(-c2ccc3nc(-c4cccnc4N)n(-c4ccc5c(c4)CC[C@@H]5NC4CCN(C(=O)C5CC5)CC4F)c3n2)n1 (stereo partly shown) [Compound 515] | 12.1 | 452
27 | Cc1nnc(-c2ccc3nc(-c4cccnc4N)n(-c4ccc5c(c4)CC[C@@H]5NC4CCN(C(=O)C5CC5)CC4)c3n2)s1 [Compound 516] | 102 | 6240

Row | SMILES | IC50 [1] [nM] | IC50 [2] [nM]
28 | Nc1ncccc1-c1nc2ccc(-n3ccc(OC4CCOCC4)n3)nc2n1-c1ccc2c(c1)CC[C@@H]2NC1CCN(C(=O)C2CC2)CC1 [Compound 517] | 31.6 | 973
29 | CSc1ccn(-c2ccc3nc(-c4cccnc4N)n(-c4ccc5c(c4)CC[C@@H]5NC4CCN(C(=O)C5CC5)CC4)c3n2)n1 [Compound 518] | 32 | 1290
30 | Cn1ccc(N2CCC(N[C@@H]3c4ccc(-n5c(-c6cccnc6N)nc6ccc(-n7cccn7)nc65)cc4CC3F)CC2)n1 (stereo partly shown) [Compound 519] | 39.2 | 1220
31 | Nc1ncccc1-c1nc2ccc(-n3nccn3)nc2n1-c1ccc2c(c1)CC[C@@H]2NC(=O)c1cnc(C2CC2)s1 [Compound 520] | 9.92 | 198
32 | Nc1ncccc1-c1nc2ccc(C#CC3CC3)nc2n1-c1ccc2c(c1)CC(F)[C@@H]2NC1CCN(C(=O)C2CC2)CC1 (stereo partly shown) [Compound 521] | 105 | > 10000
33 | Nc1ncccc1-c1nc2ccc(-n3cccn3)nc2n1-c1ccc2c(c1)CC(F)C2NC1CCN(C(=O)C2CC2)CC1 (stereo not shown) [Compound 522] | 524 | > 10000
34 | Nc1ncccc1-c1nc2ccc(-n3ccc(OC(F)F)n3)nc2n1-c1ccc2c(c1)CC(F)[C@@H]2NC1CCN(C(=O)C2CC2)CC1 (stereo partly shown) [Compound 525] | 33.5 | 1330
35 | Nc1ncccc1-c1nc2ccc(-n3nccn3)nc2n1-c1ccc2c(c1)CC[C@@H]2NC(=O)c1cnc(C(F)(F)F)s1 [Compound 526] | 20.2 | 1260
36 | N[C@H]1CCc2cc(-n3c(-c4ccccc4F)nc4ccc(-n5cccn5)nc43)ccc21 [Compound 527] | 19.5 | 1150
37 | Nc1ncccc1-c1nc2ccc(C#CC3CC3)nc2n1-c1ccc2c(c1)CC[C@@H]2n1cnnc1 [Compound 528] | 17.2 | 320
38 | Fc1ccccc1-c1nc2ccc(-n3cccn3)nc2n1-c1ccc2c(c1)CC[C@@H]2n1cnnc1 [Compound 529] | 8.2 | 621
39 | Nc1ncccc1-c1nc2ccc(-n3cccn3)nc2n1-c1ccc2c(c1)CC[C@@H]2NC1Cc2cccnc2C1 (stereo partly shown) [Compound 530] | 21.2 | 422
40 | Nc1ncccc1-c1nc2ccc(-n3cccn3)nc2n1-c1ccc2c(c1)CC[C@@H]2NC1Cc2cccnc2C1 (stereo partly shown) [Compound 531] | 50.6 | 1280
41 | Nc1ncccc1-c1nc2ccc(-n3nccn3)nc2n1-c1ccc2c(c1)CC(F)[C@@H]2NC1CCN(C(=O)C2CC2)CC1 (stereo partly shown) [Compound 532] | 177 | > 10000
42 | Nc1ncccc1-c1nc2ccc(-n3ccc(OC(F)F)n3)nc2n1-c1ccc2c(c1)CC[C@@H]2NC(=O)c1cnc(C(F)F)s1 [Compound 534] | 38.9 | 507
43 | Cc1ccc(C(=O)N[C@H]2CCc3cc(-n4c(-c5cccnc5N)nc5ccc(-n6ccc(OC(F)F)n6)nc54)ccc32)cn1 [Compound 535] | 6.42 | 42.1
44 | Nc1ncccc1-c1nc2ccc(-n3ccc(OC(F)F)n3)nc2n1-c1ccc2c(c1)CC[C@@H]2NC(=O)c1ccc(C2CC2)nc1 [Compound 537] | 2.77 | 15.3
45 | Nc1ncccc1-c1nc2ccc(-n3nccn3)nc2n1-c1ccc2c(c1)CC[C@@H]2NC(=O)c1cnc(C(F)F)o1 [Compound 538] | 25.1 | 2910
46 | Cc1nc(C2CC2)ccc1C(=O)N[C@H]1CCc2cc(-n3c(-c4cccnc4N)nc4ccc(-n5nccn5)nc43)ccc21 [Compound 539] | 5.11 | 430
47 | Cn1c(C(=O)N[C@H]2CCc3cc(-n4c(-c5cccnc5N)nc5ccc(-n6nccn6)nc54)ccc32)cnc1C1CC1 [Compound 540] | 107 | 3180
48 | Cc1nc(C(F)F)sc1C(=O)N[C@H]1CCc2cc(-n3c(-c4cccnc4N)nc4ccc(-n5nccn5)nc43)ccc21 [Compound 541] | 5.46 | 556
49 | CC(C)C(=O)N1CCC(N[C@@H]2c3ccc(-n4c(-c5cccnc5N)nc5ccc(-n6cccn6)nc54)cc3CC2F)CC1 (stereo partly shown) [Compound 542] | 117 | 2330
50 | Nc1ncccc1-c1nc2ccc(-n3ccc(N4CCOCC4)n3)nc2n1-c1ccc2c(c1)CC(F)[C@@H]2NC1CCN(C(=O)C2CC2)CC1 (stereo partly shown) [Compound 544] | 6.24 | 130
51 | COc1cccc(-c2ccc3nc(-c4cccnc4N)n(-c4ccc5c(c4)CC(F)[C@@H]5NC4CCN(C(=O)C5CC5)CC4)c3n2)n1 (stereo partly shown) [Compound 545] | 20.8 | 730
52 | COC1CCN(c2ccn(-c3ccc4nc(-c5cccnc5N)n(-c5ccc6c(c5)CC(F)[C@@H]6NC5CCN(C(=O)C6CC6)CC5)c4n3)n2)CC1 (stereo partly shown) [Compound 546] | 9.86 | 221
53 | Cc1ccc(C(=O)N[C@H]2CCc3cc(-n4c(-c5cccnc5N)nc5c(C#N)cc(-n6nccn6)nc54)ccc32)cn1 [Compound 547] | 28.3 | 1740
